Measured values: ChEMBL document CHEMBL2385007, “Synthesis and biological evaluation of prodrugs of 2-fluoro-2-deoxyribose-1-phosphate and 2,2-difluoro-2-deoxyribose-1-phosphate” (Bioorg Med Chem Lett, 2013)

How the values were obtained:
Human alphaherpesvirus 2 = assay: Antiviral activity against HSV-2 G infected in HEL cells assessed as inhibition of virus-induced cytopathicity; type: functional, organism-based; settings: Human alphaherpesvirus 2, strain G
Human betaherpesvirus 5 = assay: Antiviral activity against Cytomegalovirus AD-169 infected in HEL cells assessed as inhibition of virus-induced cytopathicity; type: functional, organism-based; settings: Human betaherpesvirus 5, AD169, HEL
[1] = Cytotoxicity against human HEL cells; type: cell-based
Human alphaherpesvirus 3 [2] = assay: Antiviral activity against Varicellla-zoster virus 07-1 infected in HEL cells assessed as inhibition of virus-induced cytopathicity; type: functional, organism-based; settings: Human alphaherpesvirus 3, 07-1, HEL
[3] = Cytotoxicity against cat CRFK cells; type: cell-based, Felis catus
[4] = test system: Human immunodeficiency virus 2; assay: Antiviral activity against HIV-2 ROD infected in human CEM cells assessed as HIV-induced host giant cell formation after 4 days by microscopic analysis; type: functional, organism-based; settings: Human immunodeficiency virus 2, ISOLATE ROD, CCRF-CEM, 96 h
CCRF-CEM = assay: Cytotoxicity against human CEM cells; type: cell-based
L1210 = assay: Cytotoxicity against mouse L1210 cells; type: cell-based
Human alphaherpesvirus 1 [5] = assay: Antiviral activity against HSV-1 KOS infected in HEL cells assessed as inhibition of virus-induced cytopathicity; type: functional, organism-based; settings: Human alphaherpesvirus 1, KOS
Vaccinia virus = assay: Antiviral activity against Vaccinia virus Lederle infected in HEL cells assessed as inhibition of virus-induced cytopathicity; type: functional, organism-based; settings: Orthopoxvirus vaccinia
Cytomegalovirus = assay: Antiviral activity against Cytomegalovirus Davis infected in HEL cells assessed as inhibition of virus-induced cytopathicity; type: functional, organism-based; settings: Human betaherpesvirus 5, Davis
[6] = test system: Human immunodeficiency virus 1; assay: Antiviral activity against HIV-1 3B infected in human CEM cells assessed as HIV-induced host giant cell formation after 4 days by microscopic analysis; type: functional, organism-based; settings: Human immunodeficiency virus 1, 3B, CCRF-CEM, 96 h
[7] = test system: Vesicular stomatitis virus; assay: Antiviral activity against Vesicular somatitis virus infected in HEL cells assessed as inhibition of virus-induced cytopathicity; type: functional, organism-based
Human alphaherpesvirus 3 [8] = assay: Antiviral activity against Varicellla-zoster virus Oka infected in HEL cells assessed as inhibition of virus-induced cytopathicity; type: functional, cell-based; settings: Human alphaherpesvirus 3, strain Oka vaccine
Felid alphaherpesvirus 1 = assay: Antiviral activity against Feline herpesvirus in cat CrFK cells assessed as plaque formation; type: functional, organism-based; settings: Felid alphaherpesvirus 1, CRFK
Feline coronavirus = assay: Antiviral activity against Feline coronavirus in cat CrFK cells assessed as plaque formation; type: functional, organism-based; settings: Alphacoronavirus 1, CRFK
Human alphaherpesvirus 1 [9] = assay: Antiviral activity against thymidine kinase-deficient ACV-resistant HSV-1 KOS infected in HEL cells assessed as inhibition of virus-induced cytopathicity; type: functional, organism-based; settings: Human alphaherpesvirus 1, KOS

SMILES	EC50 (Human alphaherpesvirus 2)	EC50 (Human betaherpesvirus 5)	MCC [1]	EC50 (Human alphaherpesvirus 3 [2])	CC50 [3]	EC50 [4]	IC50 (CCRF-CEM)	IC50 (L1210)	EC50 (Human alphaherpesvirus 1 [5])	EC50 (Vaccinia virus)	EC50 (Cytomegalovirus)	EC50 [6]	EC50 [7]	EC50 (Human alphaherpesvirus 3 [8])	EC50 (Felid alphaherpesvirus 1)	EC50 (Feline coronavirus)	EC50 (Human alphaherpesvirus 1 [9])
C[C@H](NP(=O)(Oc1cccc2ccccc12)O[C@H]1O[C@H](CO)[C@@H](O)C1(F)F)C(=O)OC1CCCCC1 (some centres undefined)	> 20 µM	> 20 µM	≥ 100 µM	> 20 µM	> 100 µM	> 50 µM	> 30 µM	> 30 µM	> 20 µM	> 20 µM	> 20 µM	> 50 µM	> 20 µM	> 20 µM	> 20 µM	> 20 µM	> 20 µM
C[C@H](NP(=O)(Oc1ccccc1)O[C@@H]1O[C@H](CO)[C@@H](O)C1(F)F)C(=O)OC1CCCCC1 (some centres undefined)	> 20 µM	> 20 µM	≥ 100 µM	> 20 µM	> 100 µM	> 250 µM	> 30 µM	> 30 µM	> 20 µM	> 20 µM	> 20 µM	> 250 µM	> 20 µM	> 20 µM	> 20 µM	> 20 µM	> 20 µM
COC(=O)[C@H](C)NP(=O)(Oc1ccccc1)O[C@H]1O[C@H](CO)[C@@H](O)C1(F)F (mixture of isomers)	> 20 µM	> 20 µM	≥ 100 µM	> 20 µM	> 100 µM	> 250 µM	> 30 µM	> 30 µM	> 20 µM	> 20 µM	> 20 µM	> 250 µM	> 20 µM	> 20 µM	> 20 µM	> 20 µM	> 20 µM
COC(=O)[C@@H](NP(=O)(Oc1ccccc1)O[C@H]1O[C@H](CO)[C@@H](O)C1(F)F)C(C)C (mixture of isomers)	> 20 µM	> 20 µM	≥ 100 µM	> 20 µM	> 100 µM	> 250 µM	> 30 µM	> 30 µM	> 20 µM	> 20 µM	> 20 µM	> 250 µM	> 20 µM	> 20 µM	> 20 µM	> 20 µM	> 20 µM
COC(=O)[C@@H](NP(=O)(Oc1cccc2ccccc12)O[C@H]1O[C@H](CO)[C@@H](O)C1(F)F)C(C)C (mixture of isomers)	> 20 µM	> 20 µM	≥ 100 µM	> 20 µM	> 100 µM	> 50 µM	> 30 µM	> 30 µM	> 20 µM	> 20 µM	> 20 µM	> 50 µM	> 20 µM	> 20 µM	> 20 µM	> 20 µM	> 20 µM
C[C@H](NP(=O)(Oc1cccc2ccccc12)O[C@H]1O[C@H](CO)[C@@H](O)C1(F)F)C(=O)OCC(C)(C)C (mixture of isomers)	> 20 µM	> 20 µM	≥ 100 µM	> 20 µM	> 100 µM	> 50 µM	> 30 µM	> 30 µM	> 20 µM	> 20 µM	> 20 µM	> 50 µM	> 20 µM	> 20 µM	> 20 µM	> 20 µM	> 20 µM
COC(=O)[C@H](C)NP(=O)(Oc1cccc2ccccc12)O[C@H]1O[C@H](CO)[C@@H](O)C1(F)F (mixture of isomers)	> 20 µM	> 20 µM	≥ 100 µM	> 20 µM	> 100 µM	> 50 µM	> 30 µM	> 30 µM	> 20 µM	> 20 µM	> 20 µM	> 50 µM	> 20 µM	> 20 µM	> 20 µM	> 20 µM	> 20 µM
